Reference: patent US8841233B2, “Herbicidal compositions comprising 4-amino-3-chloro-5-fluoro-6-(4-chloro-2-fluoro-3-methoxyphenyl) pyridine-2-carboxylic acid or a derivative thereof and 4-hydroxyphenyl-pyruvate dioxygenase (HPPD) inhibitors” (Dow Agrosciences LLC, priority 2012, dated 2014)
Several values for one entry are separate records, joined by “and”; a condition that tells them apart may be missing. Equal values may be shown once.

What was measured:
[1] = system: DIGSA; experiment: Post-emergence foliar-applied weed control, greenhouse (Example I); assay type: in vivo, Digitaria sanguinalis (L.) Scop.
Text: (§1) Evaluation of Post-emergence Foliar-Applied Herbicidal Mixtures for Weed Control in Direct Seeded Rice
(§2) Seeds or nutlets of the desired test plant species were planted in a soil matrix prepared by mixing a loam or sandy loam soil (e.g., 28.6 percent silt, 18.8 percent clay, and 52.6 percent sand, with a pH of about 5.8 and an organic matter content of about 1.8 percent) and calcareous grit in an 80 to 20 ratio. The soil matrix was contained in plastic pots with a volume of 1 quart and a surface area of 83.6 square centimeters (cm^2). When required to ensure good germination and healthy plants, a fungicide treatment and/or other chemical or physical treatment was applied. The plants were grown for 8-22 days in a greenhouse with an approximate 14 h photoperiod which was maintained at about 29° C. during the day and 26° C. during the night. Nutrients (Peters Excel® 15-5-15 5-Ca 2-Mg and iron chelate) were applied in the irrigation solution as needed and water was added on a regular basis. Supplemental lighting was provided with overhead metal halide 1000-Watt lamps as necessary. The plants were employed for testing when they reached the first through fourth true leaf stage.
(§3) Treatments consisted of the acid or esters of 4-amino-3-chloro-5-fluoro-6-(4-chloro-2-fluoro-3-methoxy-phenyl)pyridine-2-carboxylic acid (Compound A), each formulated as an SC (suspension concentrate), and various herbicidal components alone and in combination. Forms of Compound A were applied on an acid equivalent basis.
(§4) Other herbicidal components were applied on an active ingredient basis and included 4-hydroxyphenyl pyruvate dioxygenase (HPPD)-inhibiting herbicides mesotrione formulated as Callisto®, sulcotrione formulated as Mikado®, pyrazolynate formulated as Sunbird® 10% GR, and benzobicyclon formulated as Benzobicyclon 3.5%.
(§5) Treatment requirements were calculated based upon the rates being tested, the concentration of active ingredient or acid equivalent in the formulation, and a 12 mL application volume at a rate of 187 L/ha.
(§6) For treatments comprised of formulated compounds, measured amounts of compounds were placed individually in 25 mL glass vials and diluted in a volume of 1.25% (v/v) Agri-Dex® crop oil concentrated to obtain 12× stock solutions. […] Application solutions were prepared by adding an appropriate amount of each stock solution (e.g., 1 mL) and diluted to the appropriate final concentrations with the addition of 10 mL of an aqueous mixture of 1.25% (v/v) crop oil concentrate so that the final spray solutions contained 1.25+/−0.05% (v/v) crop oil concentrate.
(§7) For treatments comprised of formulated and technical compounds, weighed amounts of the technical materials were placed individually in 25 mL glass vials and dissolved in a volume of 97:3 v/v acetone/DMSO to obtain 12× stock solutions, and measured amounts of the formulated compounds were placed individually in 25 mL glass vials and diluted in a volume of 1.5% (v/v) crop oil concentrate or water to obtain 12× stock solutions. […] Application solutions were prepared by adding an appropriate amount of each stock solution (e.g., 1 mL) and diluted to the appropriate final concentrations with the addition of an appropriate amount of an aqueous mixture of 1.5% (v/v) crop oil concentrate so that the final spray solutions contained 1.25% (v/v) crop oil concentrate. As required, additional water and/or 97:3 v/v acetone/DMSO was added to individual application solutions so that the final acetone and DMSO concentrations of the application solutions being compared were 8.1% and 0.25%, respectively.
(§8) All stock solutions and applications solutions were visually inspected for compound compatibility prior to application. Spray solutions were applied to the plant material with an overhead Mandel track sprayer equipped with a 8002E nozzles calibrated to deliver 187 L/ha over an application area of 0.503 m^2 at a spray height of 18 to 20 inches (46 to 50 cm) above average plant canopy height. […]

[2] = system: BRAPP; experiment: as above; assay type: in vivo
Text: as §1, §2, §3, §4, §5, §6, §7, §8

Structure (SMILES) | Visual Weed Control (%) - 20 DAA DIGSA Obs ([1]; 4.38 gae/ha) | Visual Weed Control (%) - 20 DAA DIGSA Obs ([1]; 8.75 gae/ha) | Visual Weed Control (%) - 20 DAA DIGSA Obs ([1]; 17.5 gae/ha) | Visual Weed Control (%) - 20 DAA DIGSA Obs ([1]; 35 gae/ha) | Visual Weed Control (%) - 20 DAA BRAPP Obs ([2]; 4.38 gae/ha) | Visual Weed Control (%) - 20 DAA BRAPP Obs ([2]; 8.75 gae/ha) | Visual Weed Control (%) - 20 DAA BRAPP Obs ([2]; 17.5 gae/ha)
COc1c(Cl)ccc(-c2nc(C(=O)OCc3ccccc3)c(Cl)c(N)c2F)c1F [Compound A Benzyl Ester, benzyl ester of 4-amino-3-chloro-5-fluoro-6-(4-chloro-2-fluoro-3-methoxy-phenyl)pyridine-2-carboxylic acid] | 25% | 40% | 50% | 38% | 50% | 70% | 
COc1c(Cl)ccc(-c2nc(C(=O)O)c(Cl)c(N)c2F)c1F [Compound A Acid, 4-amino-3-chloro-6-(4-chloro-2-fluoro-3-methoxyphenyl)-5-fluoropyridine-2-carboxylic acid] | 40% | 45% | 45% |  |  | 60% and 80% | 85%
